pEC50, pIC50: −log10 of the molar value. Activity calls are given as the source filed them. No cut-off for these calls is given here.
Legend:
[1] = target: T1, Lysosomal acid glucosylceramidase (Homo sapiens, UniProt P04062, N409S); test: Chaperone activity at GCase N370S GBA mutant in patient derived fibroblast cells using 4-methylumbelliferyl-beta-D-glucopyranoside as substrate incubated for 5 days by fluorescence based analysis; format: cell-based; settings: for pEC50: read-out: EC50; for EC50: fibroblast
[2] = Stability of the compound in human liver microsomes assessed as intrinsic clearance; format: ADME, Microsome; settings: read-out: CLH
[3] = Stability of the compound in mouse liver microsomes assessed as intrinsic clearance; format: ADME, Microsome; settings: read-out: CLH
[4] = Solubility of the compound at pH 7.4; format: physicochemical; settings: buffer
[5] = Solubility of the compound at pH 1.2; format: physicochemical; settings: buffer
[6] = target: T1, Lysosomal acid glucosylceramidase; test: Inhibition of GCase N370S GBA mutant in patient derived fibroblast cells using 4-methylumbelliferyl-beta-D-glucopyranoside as substrate incubated for 5 days by fluorescence based analysis; format: cell-based; settings: for pIC50: read-out: IC50; for IC50: fibroblast
[7] = target: Voltage-gated inwardly rectifying potassium channel KCNH2 (Homo sapiens, UniProt Q12809); test: Inhibition of human ERG; format: toxicity
[8] = tested on: T2, Lysosomal acid glucosylceramidase (Homo sapiens), P04062 [N409S]; test: Inhibition of GCase N370S GBA mutant in patient derived fibroblast cells using 4-methylumbelliferyl-beta-D-glucopyranoside as substrate incubated for 5 days by fluorescence based analysis relative to control; format: cell-based; settings: time 5.0 day
T2 sequence (whole entry): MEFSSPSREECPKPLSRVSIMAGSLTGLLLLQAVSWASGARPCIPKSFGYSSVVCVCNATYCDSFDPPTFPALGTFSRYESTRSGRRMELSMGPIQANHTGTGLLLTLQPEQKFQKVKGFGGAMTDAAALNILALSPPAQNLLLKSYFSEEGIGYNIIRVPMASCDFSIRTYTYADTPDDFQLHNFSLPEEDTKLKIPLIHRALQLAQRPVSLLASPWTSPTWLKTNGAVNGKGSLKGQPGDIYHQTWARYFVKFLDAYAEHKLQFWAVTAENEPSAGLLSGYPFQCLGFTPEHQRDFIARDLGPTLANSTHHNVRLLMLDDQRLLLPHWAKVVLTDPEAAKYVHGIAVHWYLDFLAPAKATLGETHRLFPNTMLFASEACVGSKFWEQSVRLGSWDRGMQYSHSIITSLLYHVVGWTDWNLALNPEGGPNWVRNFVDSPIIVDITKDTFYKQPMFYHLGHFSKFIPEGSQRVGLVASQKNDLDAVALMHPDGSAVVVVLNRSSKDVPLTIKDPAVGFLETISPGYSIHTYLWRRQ

[9] = tested on: T2, Lysosomal acid glucosylceramidase (Homo sapiens), P04062 [N409S]; test: Chaperone activity at GCase N370S GBA mutant in patient derived fibroblast cells using 4-methylumbelliferyl-beta-D-glucopyranoside as substrate incubated for 5 days by fluorescence based analysis relative to control; format: cell-based; settings: time 5.0 day
[10] = Stability of the compound in JPI fluid at pH 1.2; format: physicochemical; settings: buffer
[11] = Stability of the compound in DMSO; format: physicochemical

Chain of Voltage-gated inwardly rectifying potassium channel KCNH2 (Q12809 whole entry): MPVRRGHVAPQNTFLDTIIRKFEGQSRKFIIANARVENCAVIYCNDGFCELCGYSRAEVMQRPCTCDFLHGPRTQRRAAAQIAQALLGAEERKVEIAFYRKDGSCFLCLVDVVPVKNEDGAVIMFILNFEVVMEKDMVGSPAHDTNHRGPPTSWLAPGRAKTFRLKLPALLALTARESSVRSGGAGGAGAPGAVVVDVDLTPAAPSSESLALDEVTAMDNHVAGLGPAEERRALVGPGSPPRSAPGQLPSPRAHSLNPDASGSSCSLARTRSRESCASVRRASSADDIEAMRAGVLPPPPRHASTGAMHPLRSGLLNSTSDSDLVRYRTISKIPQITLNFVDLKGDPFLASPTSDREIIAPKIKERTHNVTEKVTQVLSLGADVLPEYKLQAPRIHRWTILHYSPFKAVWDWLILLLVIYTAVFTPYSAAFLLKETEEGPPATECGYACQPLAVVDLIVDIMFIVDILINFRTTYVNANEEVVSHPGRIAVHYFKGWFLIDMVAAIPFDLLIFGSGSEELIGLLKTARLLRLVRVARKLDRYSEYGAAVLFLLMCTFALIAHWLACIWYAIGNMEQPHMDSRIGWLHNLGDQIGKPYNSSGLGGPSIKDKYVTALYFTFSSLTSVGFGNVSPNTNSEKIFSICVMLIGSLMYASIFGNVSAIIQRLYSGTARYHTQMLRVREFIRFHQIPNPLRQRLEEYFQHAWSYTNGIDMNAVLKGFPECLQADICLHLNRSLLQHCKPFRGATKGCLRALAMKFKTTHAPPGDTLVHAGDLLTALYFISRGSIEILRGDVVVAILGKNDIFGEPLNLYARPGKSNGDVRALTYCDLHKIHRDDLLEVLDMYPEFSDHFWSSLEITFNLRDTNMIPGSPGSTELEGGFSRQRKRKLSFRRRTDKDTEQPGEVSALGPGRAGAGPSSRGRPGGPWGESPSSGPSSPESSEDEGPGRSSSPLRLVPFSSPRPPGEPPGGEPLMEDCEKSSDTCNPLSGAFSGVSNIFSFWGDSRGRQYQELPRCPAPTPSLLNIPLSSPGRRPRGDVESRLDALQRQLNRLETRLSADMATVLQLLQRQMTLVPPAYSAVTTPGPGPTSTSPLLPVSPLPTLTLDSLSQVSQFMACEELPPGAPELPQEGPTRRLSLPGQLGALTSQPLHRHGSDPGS

Work on `Cc1n[nH]c2c1[C@@H](O)[C@H](n1nnc3ccccc31)[C@@H](c1ccccc1Br)N2` [listing 1 of 2 here] yielded a pEC50 [1] of 7.07, a microsomal CLint [2] of 22.7 µL/min/mg and a microsomal CLint [3] of 31.4 µL/min/mg. It also gave a solubility [4] greater than 100 µM, a solubility [5] greater than 100 µM and a pIC50 [6] of 6.48. The pIC50 [7] was less than 4.60.
In the case of `Cc1n[nH]c2c1[C@H](O)[C@@H](n1nnc3ccccc31)[C@H](c1ccccc1Cl)N2`, the Emax [8] was “inactive”, the EC50 [1] was “Not Active” and the IC50 [6] was “Not Active”. The Emax [9] was “inactive”.
`Cc1n[nH]c2c1[C@@H](O)[C@H](n1nnc3ccccc31)[C@@H](c1ccccc1Cl)N2` [listing 1 of 2 here] showed a pEC50 [1] of 7.12, a microsomal CLint [2] of 9.61 µL/min/mg and a microsomal CLint [3] of 15.7 µL/min/mg. It also gave a solubility [4] greater than 100 µM, a solubility [5] greater than 100 µM and a pIC50 [6] of 6.96. For the same compound, the pIC50 [7] was less than 4.60.
`Cc1n[nH]c2c1[C@@H](O)[C@H](n1nnc3ccccc31)[C@@H](c1ccccc1)N2` [listing 1 of 2 here] showed a pEC50 [1] of 5.96, a microsomal CLint [2] of 5.01 µL/min/mg and a microsomal CLint [3] of 9.88 µL/min/mg. The solubility [4] was greater than 100 µM, the solubility [5] was greater than 100 µM and the pIC50 [6] was 5.49.
With `Cc1n[nH]c2c1[C@H](O)[C@@H](n1nnc3ccccc31)[C@H](c1ccccc1)N2` the Emax [8] was “inactive”, the EC50 [1] was “Not Active” and the IC50 [6] was “Not Active”. For the same compound, the Emax [9] was “inactive”.
In the case of `Cc1cc2n(n1)C(O)[C@H](n1nnc3ccccc31)[C@@H](c1ccccc1)N2` (some centres not stated), the pEC50 [1] was 5.25, the Stability [10] was “Stable” and the Stability [11] was “Stable”.
For `Cc1n[nH]c2c1[C@H](O)[C@@H](n1nnc3ccccc31)[C@H](c1ccccc1Br)N2`, the EC50 [1] was “Not Active” and the Emax [9] was “inactive”.
Work on `Cc1n[nH]c2c1[C@@H](O)[C@H](n1nnc3ccccc31)[C@@H](c1ccccc1)N2` [listing 2 of 2 here] yielded an Emax [8] of 95% and an Emax [9] of 137%.
With `Cc1n[nH]c2c1[C@@H](O)[C@H](n1nnc3ccccc31)[C@@H](c1ccccc1Br)N2` [listing 2 of 2 here] the Emax [8] was 101% and the Emax [9] was 170%.
For `Cc1n[nH]c2c1[C@@H](O)[C@H](n1nnc3ccccc31)[C@@H](c1ccccc1Cl)N2` [listing 2 of 2 here], the Emax [8] was 85% and the Emax [9] was 163%.
`OC[C@H]1CNC[C@@H](O)[C@@H]1O` showed an Emax [8] of 103% and an Emax [9] of 103%.
For `O[C@@H]1c2c(-c3ccccc3)n[nH]c2N[C@H](c2ccccc2Cl)[C@H]1n1nnc2ccccc21` (racemic), the EC50 [1] was “Not Active” and the Emax [9] was “inactive”.
`Cc1n[nH]c2c1[C@@H](O)[C@H](n1nnc3ccccc31)[C@@H](c1ccccc1C(F)(F)F)N2` (racemic) gave an Emax [8] of 103%, a pEC50 [1] of 6.33 and a pIC50 [6] of 5.96. For the same compound, the Emax [9] was 160%.
`Cc1cccc([C@H]2Nc3[nH]nc(C)c3[C@@H](O)[C@@H]2n2nnc3ccccc32)c1` (racemic) gave a pEC50 [1] of 5.96 and an Emax [9] of 158%.
In the case of `Cc1n[nH]c2c1[C@@H](O)[C@H](n1nnc3ccccc31)[C@@H](c1ccccc1Br)N2` (racemic) [listing 1 of 2 here], the pEC50 [1] was 6.70.
`O[C@@H]1c2c(C3CC3)n[nH]c2N[C@H](c2ccccc2Cl)[C@H]1n1nnc2ccccc21` (racemic) gave an Emax [8] of 95%, a pEC50 [1] of 7.08 and a pIC50 [6] of 7.13. For the same compound, the Emax [9] was 172%.
Work on `Cc1ccc([C@H]2Nc3[nH]nc(C)c3[C@@H](O)[C@@H]2n2nnc3ccccc32)cc1` (racemic) yielded a pEC50 [1] of 5.96 and an Emax [9] of 157%.
`Cc1n[nH]c2c1[C@@H](O)[C@H](n1nnc3ccccc31)[C@@H](c1cccc(Cl)c1Cl)N2` (racemic) showed a pEC50 [1] of 6.85 and an Emax [9] of 140%.
For `O[C@@H]1c2cn[nH]c2N[C@H](c2ccccc2)[C@H]1n1nnc2ccccc21` (racemic), the pEC50 [1] was less than 4.80 and the Emax [9] was greater than 40%.
In the case of `O[C@@H]1c2ccccc2N[C@H](c2ccccc2)[C@H]1n1nnc2ccccc21` (racemic), the EC50 [1] was “Not Active” and the Emax [9] was “inactive”.
Compound `O[C@@H]1c2cnccc2N[C@H](c2ccccc2Cl)[C@H]1n1nnc2ccccc21` (racemic) has a pEC50 [1] of less than 4.80 and an Emax [9] greater than 239%.
`Cc1n[nH]c2c1[C@@H](O)[C@H](n1nnc3ccccc31)[C@@H](c1ccccc1Cl)N2` (racemic) [listing 1 of 2 here] showed a pEC50 [1] of 6.85.
With `O[C@@H]1c2c(C3CCCC3)n[nH]c2N[C@H](c2ccccc2)[C@H]1n1nnc2ccccc21` (racemic) the EC50 [1] was “Not Active” and the Emax [9] was “inactive”.
With `COCc1n[nH]c2c1[C@@H](O)[C@H](n1nnc3ccccc31)[C@@H](c1ccccc1)N2` (racemic) the EC50 [1] was “Not Active” and the Emax [9] was “inactive”.
Compound `Cc1n[nH]c2c1[C@@H](O)[C@H](n1nnc3ccccc31)[C@@H](C1CCCCCC1)N2` (racemic) has a pEC50 [1] of 6.64 and an Emax [9] of 170%.
For `Cc1n[nH]c2c1[C@@H](O)[C@H](n1nnc3ccccc31)[C@@H](c1ccccc1)N2` (racemic) [listing 1 of 2 here], the pEC50 [1] was 5.85.
`Cc1n[nH]c2c1[C@@H](O)[C@H](n1nnc3ccccc31)[C@@H](C1CCCCC1)N2` (racemic) gave an Emax [8] of 102%, a pEC50 [1] of 6.43 and a pIC50 [6] of 6.19. It also gave an Emax [9] of 180%.
For `COc1ccccc1[C@H]1Nc2[nH]nc(C)c2[C@@H](O)[C@@H]1n1nnc2ccccc21` (racemic), the pEC50 [1] was 5.48 and the Emax [9] was 145%.
`Cc1cccc([C@H]2Nc3[nH]nc(C)c3[C@@H](O)[C@@H]2n2nnc3ccccc32)c1Cl` (racemic) gave a pEC50 [1] of 6.82 and an Emax [9] of 147%.
For `Cc1n[nH]c2c1[C@@H](O)[C@H](n1nnc3ccccc31)[C@@H](C1CCOCC1)N2` (racemic), the pEC50 [1] was less than 4.80 and the Emax [9] was greater than 65%.
Work on `Cc1n[nH]c2c1[C@@H](O)[C@H](n1nnc3ccccc31)[C@@H](c1ccc(Cl)cc1Cl)N2` (racemic) yielded a pEC50 [1] of 6.13 and an Emax [9] of 150%.
In the case of `Cc1n[nH]c2c1[C@@H](O)[C@H](n1nnc3ccccc31)[C@@H](c1cccc(F)c1)N2` (racemic), the pEC50 [1] was 5.92 and the Emax [9] was 137%.
In the case of `Cc1ccccc1[C@H]1Nc2[nH]nc(C)c2[C@@H](O)[C@@H]1n1nnc2ccccc21` (racemic), the Emax [8] was 97%, the pEC50 [1] was 5.72 and the pIC50 [6] was 5.34. It also gave an Emax [9] of 158%.
For `Cc1n[nH]c2c1[C@@H](O)[C@H](n1nnc3ccccc31)[C@@H](c1ccc(F)cc1)N2` (racemic), the pEC50 [1] was 5.66 and the Emax [9] was 61%.
`CC(C)(C)c1n[nH]c2c1[C@@H](O)[C@H](n1nnc3ccccc31)[C@@H](c1ccccc1Cl)N2` (racemic) gave a pEC50 [1] of 5.13 and an Emax [9] of 132%.
In the case of `Cc1n[nH]c2c1[C@@H](O)[C@H](n1nnc3ccccc31)[C@@H](c1cc(Cl)ccc1Cl)N2` (racemic), the pEC50 [1] was 6.14 and the Emax [9] was 145%.
`Cc1n[nH]c2c1[C@@H](O)[C@H](n1nnc3ccccc31)[C@@H](c1cccc(F)c1Cl)N2` (racemic) gave a pEC50 [1] of 6.96 and an Emax [9] of 148%.
For `Cc1n[nH]c2c1[C@@H](O)[C@H](n1nnc3ccccc31)[C@@H](C1CC1)N2` (racemic), the EC50 [1] was “Not Active” and the Emax [9] was “inactive”.
In the case of `Cc1n[nH]c2c1[C@@H](O)[C@H](n1nnc3ccccc31)[C@@H](C1CCCC1)N2` (racemic), the pEC50 [1] was 5.72 and the Emax [9] was 150%.
`CCc1n[nH]c2c1[C@@H](O)[C@H](n1nnc3ccccc31)[C@@H](c1ccccc1Cl)N2` (racemic) gave a pEC50 [1] of 6.32 and an Emax [9] of 191%.
For `Cc1n[nH]c2c1[C@@H](O)[C@H](n1nnc3ccccc31)[C@@H](C)N2` (racemic), the EC50 [1] was “Not Active” and the Emax [9] was “inactive”.
For `O[C@@H]1c2ccncc2N[C@H](c2ccccc2Cl)[C@H]1n1nnc2ccccc21` (racemic), the Emax [8] was 99%, the pEC50 [1] was 6.24 and the pIC50 [6] was 5.74. The Emax [9] was 151%.
`Cc1n[nH]c2c1[C@@H](O)[C@H](n1nnc3ccccc31)[C@@H](c1ccccc1F)N2` (racemic) showed an Emax [8] of 103%, a pEC50 [1] of 6.01 and a pIC50 [6] of 5.74. The Emax [9] was 137%.
With `Cc1n[nH]c2c1[C@@H](O)[C@H](n1nnc3ccccc31)[C@@H](c1ccccc1)N2` (racemic) [listing 2 of 2 here] the Emax [9] was 173%.
With `Cc1n[nH]c2c1[C@@H](O)[C@H](n1nnc3ccccc31)[C@@H](c1ccccc1Br)N2` (racemic) [listing 2 of 2 here] the Emax [9] was 164%.
Compound `Cc1n[nH]c2c1[C@@H](O)[C@H](n1nnc3ccccc31)[C@@H](c1ccccc1Cl)N2` (racemic) [listing 2 of 2 here] has an Emax [9] of 160%.

Reference: ChEMBL document CHEMBL5329195, “Identification of novel glucocerebrosidase chaperones by unexpected skeletal rearrangement reaction” (Bioorg Med Chem Lett, 2023)
